Assay results reported in patent US20080095764A1, “Use of genetically-and epigenetically-altered protocadherins in methods of diagnosing, prognosing, and treating cancer” (THE TRUSTEES OF COLUMBIA UNIVERSITY IN THE CITY OF NEW YORK, priority 2004, published 2008).
“Also recorded” adds a separate entry of the source.

Tested on: PCDH8 expression in MDA-MB-435s cells
Experiment: 5-aza-deoxycytidine treatment, reactivation of PCDH8 expression (RT-PCR)
Type: cell-based, human
Details: MDA-MB-435s breast cancer cells with methylated PCDH8 promoter, 1 μM 5-aza-deoxycytidine for 72 hours, vs PBS control
Procedure: Cells were lysed in solution D, and RNA was separated by CsCl. RNA was resuspended in sodium acetate, and reprecipitated with ethanol. The pellet was dissolved in DEPC-treated water. RNA was primed with random hexamers, and reverse-transcribed with Superscript II reverse transcriptase (Invitrogen).
cDNA was synthesized from RNA primed with random hexamers (Amersham). Primers used for RT-PCR are below: DIAPH3: […] (SEQ ID NO:74, […] (SEQ ID NO:75). PCDH8: TGGCGGTGTGGAAAGGACA (SEQ ID NO:75), […] (SEQ ID NO:76). For reactivation studies, cells were treated with 1 μM 5-aza-deoxycytidine for 72 hours.
Cells were plated to 20% confluence, and treated with fresh 1 micromolar 5-aza-deoxycytidine for 72 h. RNA and cDNA were prepared from the cells and subjected to PCR.

Nc1ncn([C@H]2C[C@H](O)[C@@H](CO)O2)c(=O)n1 [5-aza-deoxycytidine]
PCDH8 expression after treatment: restored; also recorded: reactivated
